In ChEMBL document CHEMBL1136181, “Differentially functionalized diamines as novel ligands for the NPY2 receptor” (Bioorg Med Chem Lett, 2003):

Target: T1, Neuropeptide Y receptor type 2 (Homo sapiens, UniProt P49146)
T1 sequence (P49146 whole entry): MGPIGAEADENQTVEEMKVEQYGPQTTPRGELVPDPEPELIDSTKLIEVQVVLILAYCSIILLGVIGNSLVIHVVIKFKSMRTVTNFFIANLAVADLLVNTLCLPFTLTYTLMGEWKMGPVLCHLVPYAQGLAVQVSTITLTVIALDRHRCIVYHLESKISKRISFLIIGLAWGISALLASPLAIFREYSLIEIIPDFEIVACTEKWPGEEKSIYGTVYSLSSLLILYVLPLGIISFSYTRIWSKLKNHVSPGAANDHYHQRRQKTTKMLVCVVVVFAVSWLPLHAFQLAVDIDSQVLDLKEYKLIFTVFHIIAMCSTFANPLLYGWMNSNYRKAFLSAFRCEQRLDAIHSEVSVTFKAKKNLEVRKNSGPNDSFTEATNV
Assay: Binding affinity against SMS-KAN cell membranes endogenously expressing Neuropeptide Y receptor type 2 using [125I]PYY as radioligand

Compound | IC50
CN(C)CCCN(C(=O)c1cc2ccccc2s1)c1ccccc1CCc1ccccc1 | > 10 µM
CNCCCN(C(=O)c1cc2ccccc2s1)c1ccccc1SCc1ccccc1 | > 10 µM
CN(C)CCCN(C(=O)c1cc2ccccc2s1)c1ccccc1-c1ccccc1 | > 10 µM
CN(C)CCCCN(C(=O)c1cc2ccccc2s1)c1ccccc1SCc1ccccc1 | > 10 µM
CN(C)CCCN(C(=O)c1cc2ccccc2s1)c1ccccc1Cc1ccccc1 | > 10 µM
CN(C)CCCN(C(=O)c1sc2ccccc2c1Cl)c1ccccc1SCc1ccccc1 | > 10 µM
CC(C(=O)N(CCCN(C)C)c1ccccc1SCc1ccccc1)c1ccccc1 (stereo not drawn) | 1 µM
CN(C)CCCN(C(=O)c1cc2ccccc2s1)c1ccccc1NC(=O)c1ccccc1 | > 10 µM
CN(C)CCCN(C(=O)c1cc2ccccc2o1)c1ccccc1SCc1ccccc1 | > 10 µM
CCCCc1ccccc1N(CCCN(C)C)C(=O)c1cc2ccccc2s1 | 2.2 µM
CN(C)CCCN(C(=O)[C@@H]1C[C@H]1c1ccccc1)c1ccccc1SCc1ccccc1 | 3.7 µM
CN(C)CCN(C(=O)c1cc2ccccc2s1)c1ccccc1SCc1ccccc1 | > 10 µM
CN(C)CCCN(C(=O)/C=C/c1ccccc1)c1ccccc1SCc1ccccc1 | 10 µM
